# Experimental data from US11981729B2, “Method” (Agency for Science, Technology and Research, priority 2020, dated 2024).
# B1: GPx: GSH peroxidase GPx1 (SRP-8010, Sigma Aldrich), given to cells together with H2O2 (protein, UniProt P00435 1-205, looked up)
# Glutathione peroxidase 1: MCAAQRSAAALAAAAPRTVYAFSARPLAGGEPFNLSSLRGKVLLIENVASLUGTTVRDYTQMNDLQRRLGPRGLVVLGFPCNQFGHQENAKNEEILNCLKYVRPGGGFEPNFMLFEKCEVNGEKAHPLFAFLREVLPTPSDDATALMTDPKFITWSPVCRNDVSWNFEKFLVGPDGVPVRRYSRRFLTIDIEPDIETLLSQGASA
# Assays:
# NIH3T3vSrc cells [1] = experiment: ECM degradation assay, NIH3T3vSrc on rat tail ECM; type: cell-based, mouse; settings: for ECM degradation: 1 mM GSH supplemented, or GPx and H2O2, vs untreated cells
# Method: (§1) Gelatin (#G1393, Sigma) was first coupled to 5-carboxy-X-rhodamine succinimidyl ester (#C-6125, ThermoFisher Scientific). Sterile coverslips were coated with gelatin for 20 min, then fixed with 0.5% glutaraldehyde (#15960, Electron Microscopy Sciences) for 40 min. After washing, a layer of 0.5 mg/ml type I collagen (#354236 rat tail, Corning) was coated onto these gelatin coverslips and incubated 4 h at 37° C. before cell seeding. Cells were incubated overnight before fixation and staining. At least 20 images were acquired for each condition, experiments were done in 3 biological replicates. The area of degradation was quantified using ImageJ and normalized to the number of nuclei in each image. To study the involvement of GSH in collagen disulfide bond reduction, cells were seeded on red gelatin and collagen I coated coverslips to proceed to ECM degradation assay. Cells were incubated 2 h to adhere and where then incubated with 1 mM L-gluthatione reduced (GSH #4251, Sigma Aldrich) overnight before fixation. For the opposite experiment, cells were seeded into red gelatin and collagen I coated coverslips, incubated 2 h to adhere and treated with 10 mg GPx1 (SRP-8010, Sigma Aldrich) and H2O2 every 30 min for 6 hours before fixation. ECM degradation quantification was performed as described above. siRNA oligonucleotides were purchased from Dharmacon. Endogenous Cnx was depleted by 2 rounds of siRNA transfection. Briefly, cells were first treated by reverse transfection with 25 nM of control siRNA ([NT]) or siRNA against [NT]) using Lipofectamine RNAiMAX (ThermoFisher Scientific). The day after, cells were treated again by forward transfection with nM siRNA diluted in Opti-MEM medium (Gibco) and incubated 5 more days before analyzing. Since GALA stimulates ECM degradation and Cnx is present in the responsible subcellular structures, we next asked whether surface Cnx is involved in this activity. […] We quantified ECM degradative activity by measuring the loss of fluorescent gelatin using automated image analysis (FIG. 8C). […]
# NIH3T3vSrc cells [2] = experiment: Invadosome rosette formation after Cnx depletion; type: cell-based, mouse; settings: siCnx vs siNT5
# Method: siRNA oligonucleotides were purchased from Dharmacon. Endogenous Cnx was depleted by 2 rounds of siRNA transfection. Briefly, cells were first treated by reverse transfection with 25 nM of control siRNA (5′-UGGUUUACAUGUCGACUAA-3′) or siRNA against Cnx (5′-[…]-3′) using Lipofectamine RNAiMAX (ThermoFisher Scientific). The day after, cells were treated again by forward transfection with nM siRNA diluted in Opti-MEM medium (Gibco) and incubated 5 more days before analyzing.
# (§2) To better understand this Cnx requirement, we tested whether Cnx depletion affected invadosomes formation, which we measured in NIH3T3vSrc because of the abundance of invadosomes and ease of detection in these cells (FIG. 2E). Given the lack of effect, we hypothesized an effect on Matrix Metalloproteinases and measured MMP2, 9 and 14 abundance by western blot (FIG. 8F). We also measured MMPs activity in a cell lysate and MMP14 localization in invadosomes rosettes after Cnx depletion (FIG. 8G, FIG. 8H).
# MMP2, 9 and 14 = experiment: MMP protein level by western blot after Cnx depletion; type: cell-based; settings: NIH3T3vSrc after Cnx depletion
# Method: Cells were washed twice with ice-cold PBS, scraped in ice-cold RIPA lysis buffer (50 mM Tris, 200 mM NaCl, 0.5% NP-40, Complete and PhoStop inhibitor [Roche Applied Science]) and lysed for 30 min at 4° C. Lysates were then clarified by centrifugation at 13000 g for 10 min at 4° C. Lysate concentrations were determined using Bradford reagent (Bio-Rad). Lysates were boiled at 95° C. for 5 min and separated by SDS-PAGE electrophoresis using 4-12% Bis-Tris NuPage gels (Invitrogen) at 180V for 70 min. Samples were then transferred on nitrocellulose membranes using iBlot transfer system (Invitrogen) and blocked using 3% BSA dissolved in TBST (50 mM Tris, 150 mM NaCl and 0.1% Tween-20) for 1 h at room temperature. Membranes were then incubated with primary antibodies (1/1000 diluted in 3% BSA-TBST) overnight at 4° C. […]
# as §2
# MMPs = experiment: FRET-based MMP activity assay on cell lysates; type: biochemical; settings: MDA ER-G2 after Cnx depletion
# Method: In order to quantify total MMP activity, we used a FRET-based MMP activity assay kit (ab112147), on cell lysates, according to the manufacturer's protocol. Fluorescence was read at 540 nm using a microplate reader (Tecan) every 5 min for 2 h.
# as §2
# MMP14 = MMP14 localization in invadosome rosettes (immunofluorescence); type: cell-based; settings: NIH3T3vSrc after Cnx depletion
# Method: Cells were seeded on coverslips, at 70 000 cells per well in a 24-well plate (ThermoFisher Scientific) and incubated overnight. Cells were fixed with 4% paraformaldehyde (PFA) in Phosphate Buffered Saline (PBS, Gibco) for 10 min, rinsed 3 times with PBS and then permeabilized with 0.2% Triton X-100 for 10 min. Cells were incubated with primary antibodies (1/100 diluted in 2% FBS-PBS) for 1 h 30 at room temperature, rinsed 3 times with PBS and incubated with secondary antibodies (1/200 diluted in 2% FBS-PBS) for 40 min before being rinsed and mounted on microscope slides.
# as §2
# NIH3T3vSrc cells [3] = experiment: Cell-mediated ECM disulfide bond reduction (NEM / OX133 staining); type: cell-based, mouse; settings: NIH3T3vSrc on rat tail ECM, GM6001 and NEM, 16 hours; Cnx depleted vs control cells
# Description: In the ER, the Cnx-ERp57 complex mediates the formation and isomerization of disulfide bonds in neo-synthesized proteins^40. To explain the surprising requirement of the same complex for matrix degradation, we hypothesized it could mediate the reduction of disulfide bonds in extracellular ECM fibers. To reveal disulfide bonds in ECM preparations, we used the reducing agent tris(2-carboxyethyl)phosphine (TCEP), followed by reaction with N-ethylmaleimide (NEM). […] To test whether disulfide bonds are present in liver ECM, we prepared decellularized mouse liver tissue. The decellularized matrix presented as a meshwork with a diamond-shaped pattern, the fibers staining for Collagen I, III, IV, and fibronectin (FIGS. 4B, FIG. 9A, FIG. 9B). […] We also tested the commercially-sourced liver porcine ECM and the rat tail connective tissue and obtained in both cases an abundant staining with OX133 after TECP/NEM treatment (FIG. 9C). This staining was entirely dependent on TCEP and NEM. In all cases, most of the OX133 signal colocalized with collagen fibers.
# To test if cells are able to reduce these disulfide bonds, the actively degrading NIH3T3vSrc cells were sparsely seeded on rat tail ECM. The cells were treated with the MMP inhibitor GM6001 to prevent collagen degradation. NEM was then added to reveal reduced cysteines and after 16 hours, coverslips were fixed and labeled. […]
# MDA ER-G2 cells = experiment: ECM degradation assay, MDA ER-G2 on rat tail ECM; type: cell-based, human; settings: for ECM degradation: MDA ER-G2, 1 mM GSH supplemented, or GPx and H2O2, vs untreated cells; for ECM degradation after ECM pre-treatment: ECM pre-treated before cell seeding
# Method: as §1, with “image. To chemically reduce collagen disulfide bonds before cell seeding and ECM degradation assay, a 0.5 mg/ml type I collagen matrix was coated onto red gelatin coverslips and incubated 4 h at 37° C. for polymerization. Collagen was incubated with 2.5 mM TCEP (#64, 654-7, Sigma Aldrich) for 30 min at room temperature, rinsed 3 times with 1% BSA in PBS, and incubated with 5 mM N-ethylmaleimide (NEM #23030, ThermoFisher Scientific) for 30 min at room temperature. Coverslips were gently rinsed 3 more times with 1% BSA in PBS before cell seeding and ECM degradation assay.” for “image.”, “activity. To measure ECM degradation, we used a sandwich of fluorescently labeled gelatin overlaid with native ECM of different sources.” for “activity.”
molecule,measurement,setting,value
5′-CAAGAGUGGUCCUAGGAGAUU-3′ [siCnx],matrix degradation,"NIH3T3vSrc cells [1]; siRNA depletion vs control siRNA (siNT5), listed as siRNA targeting Cnx",similarly reduced ECM degradation
same,rosette formation (number of rosettes per cell and percentage of cells making rosettes),NIH3T3vSrc cells [2],non significant
same,"MMP2, 9 and 14 abundance by western blot","MMP2, 9 and 14",could not detect any difference
same,MMPs activity in a cell lysate,MMPs,could not detect any difference
same,MMP14 localization in invadosomes rosettes,MMP14,could not detect any difference
same,OX133 staining of ECM (reduced disulfide bonds),NIH3T3vSrc cells [3],significantly reduced
"N[C@@H](CCC(=O)N[C@@H](CS)C(=O)NCC(=O)O)C(=O)O [GSH, L-gluthatione reduced]",ECM degradation,MDA ER-G2 cells,more efficient at ECM degradation
same,ECM degradation,NIH3T3vSrc cells [1],more efficient at ECM degradation
"Cl.O=C(O)CCP(CCC(=O)O)CCC(=O)O [TCEP, Tris(2-carboxyethyl)phosphine hydrochloride]",ECM degradation after ECM pre-treatment,MDA ER-G2 cells; MDA ER-G2 control cells,stimulatory effect on ECM degradation
same,ECM degradation after ECM pre-treatment,MDA ER-G2 cells; MDA ER-G2 depleted of Cnx or ERp57,completely reversed the inhibitory effect of Cnx depletion
B1,ECM degradation,MDA ER-G2 cells,less efficient ECM degradation
same,ECM degradation,NIH3T3vSrc cells [1],less efficient ECM degradation
